Experimental data published in EP1614683B1, “Indazole compounds and pharmaceutical compositions for inhibiting protein kinases, and methods for their use” (priority 1999, dated 2001).
Like-named read-outs stand apart in the source and are kept apart here.

[1] = mouse, in vivo, po, 10 mg/kg, pH 2.3
[2] = mouse, in vivo, ip, 25 mg/kg, pH 2.3
[3] = mouse, in vivo, po, 50 mg/kg, 7 h, pH 2.3
[4] = mouse, in vivo, po, 50 mg/kg, pH 2.3
[5] = mouse, in vivo, ip, 25 mg/kg, 7 h, pH 2.3
[6] = mouse, in vivo, po, 25 mg/kg, pH 2.3
[7] = mouse, in vivo, po, 25 mg/kg, 7 h, pH 2.3
[8] = PO, 25 mg/kg, vehicle PEG400:H2O pH 2.3 30:70

| SMILES | AUCleast [2] | T1/2 [2] | AUCleast [4] | T1/2 [4] | AUCleast [6] | T1/2 [6] | further results |
| --- | --- | --- | --- | --- | --- | --- | --- |
| Cc1cccc(C(=O)Nc2cccc(Oc3ccc4c(/C=C/c5ccccc5)n[nH]c4c3)c2)c1 [5 (b)] | – | – | – | – | – | – | AUCleast [1]: 61 ng·h/mL; T1/2 [1]: 3.1 h |
| O=C(Nc1cccc(Cl)c1)c1ccccc1Sc1ccc2c(/C=C/c3ccccn3)n[nH]c2c1 [33 (d)] | 5080 ng·h/mL | 1.6 h | 4744 ng·h/mL | 0.9 h | – | – | Cmin (7 hr conc.) [3]: 8 ng/mL |
| O=C(NC1CC1)c1ccccc1Sc1ccc2c(/C=C/c3ccccn3)n[nH]c2c1 [33 (e)] | 14323 ng·h/mL | 1.0 h | 13290 ng·h/mL | 0.7 h | – | – | – |
| O=C(NCC(F)(F)F)c1ccccc1Sc1ccc2c(/C=C/c3ccccn3)n[nH]c2c1 [33 (f)] | 1887 ng·h/mL | 2.4 h | 1436 ng·h/mL | 0.7 h | – | – | Cmin (7 hr conc.) [5]: 6 ng/mL; Cmin (7 hr conc.) [3]: 3 ng/mL |
| COc1cccc(CNC(=O)c2ccccc2Sc2ccc3c(/C=C/c4ccccn4)n[nH]c3c2)c1 [35 (aa)] | – | – | – | – | 4036 ng·h/mL | 2.1 h | – |
| CC(C)NC(=O)c1ccccc1Sc1ccc2c(/C=C/c3ccccn3)n[nH]c2c1 [35 (b)] | 2840 ng·h/mL | 0.8 h | 4048 ng·h/mL | 0.8 h | – | – | – |
| O=C(NC1CCC1)c1ccccc1Sc1ccc2c(/C=C/c3ccccn3)n[nH]c2c1 [35 (c)] | 9408 ng·h/mL | 3.2 h | 4744 ng·h/mL | 4.9 h | – | – | – |
| C#CCNC(=O)c1ccccc1Sc1ccc2c(/C=C/c3ccccn3)n[nH]c2c1 [35 (cc)] | 2223 ng·h/mL | 1.4 h | 1718 ng·h/mL | 0.9 h | – | – | Cmin (7 hr conc.) [5]: 6 ng/mL; Cmin (7 hr conc.) [3]: 5 ng/mL |
| CCONC(=O)c1ccccc1Sc1ccc2c(/C=C/c3ccccn3)n[nH]c2c1 [35 (dd)] | > 23046 ng·h/mL | 4.1 h | – | – | > 6521 ng·h/mL | 1.4 h | AUCleast (mouse, in vivo, po, 25 mg/kg): 1360 ng·h/mL; T1/2 (mouse, in vivo, po, 25 mg/kg): 2.0 h |
| Cn1cccc1C(=O)NNC(=O)c1ccccc1Sc1ccc2c(/C=C/c3ccccn3)n[nH]c2c1 [35 (e)] | 2409 ng·h/mL | 1.8 h | 1503 ng·h/mL | 0.9 h | – | – | Cmin (7 hr conc.) [3]: 6 ng/mL |
| C=C(C)CNC(=O)c1ccccc1Sc1ccc2c(/C=C/c3ccccn3)n[nH]c2c1 [35 (ee)] | 546 ng·h/mL | 1.5 h | – | – | 157 ng·h/mL | 14.6 h | Cmin (7 hr conc.) [5]: 2 ng/mL; Cmin (7 hr conc.) [7]: 9 ng/mL |
| O=C(NCc1ccccc1F)c1ccccc1Sc1ccc2c(/C=C/c3ccccn3)n[nH]c2c1 [35 (f)] | 397 ng·h/mL | 3.8 h | 358 ng·h/mL | 3.6 h | – | – | – |
| O=C(NCc1cccc(F)c1)c1ccccc1Sc1ccc2c(/C=C/c3ccccn3)n[nH]c2c1 [35 (ff)] | > 6301 ng·h/mL | – | – | – | Blq | – | Cmin (7 hr conc.) [6]: blq |
| COc1ccc(CNC(=O)c2ccccc2Sc2ccc3c(/C=C/c4ccccn4)n[nH]c3c2)cc1 [35 (g)] | – | – | – | – | 231 ng·h/mL | 16.1 h | – |
| Cc1ccc(CNC(=O)c2ccccc2Sc2ccc3c(/C=C/c4ccccn4)n[nH]c3c2)o1 [35 (h)] | 59 ng·h/mL | 1.5 h | 26 ng·h/mL | – | – | – | Cmin (7 hr conc.) [5]: 1 ng/mL; Cmin (7 hr conc.) [3]: 2 ng/mL |
| O=C(NCCc1cccs1)c1ccccc1Sc1ccc2c(/C=C/c3ccccn3)n[nH]c2c1 [35 (hh)] | – | – | – | – | 292 ng·h/mL | 1.7 h | Cmin (7 hr conc.) [7]: 5 ng/mL |
| C=CCONC(=O)c1ccccc1Sc1ccc2c(/C=C/c3ccccn3)n[nH]c2c1 [35 (j)] | 9531 ng·h/mL | 1.3 h | 1328 ng·h/mL | 4.5 h | – | – | Cmin (7 hr conc.) [3]: 5 ng/mL |
| CC(C)ONC(=O)c1ccccc1Sc1ccc2c(/C=C/c3ccccn3)n[nH]c2c1 [35 (k)] | 2640 ng·h/mL | 1.4 h | 5529 ng·h/mL | 1.4 h | – | – | – |
| O=C(NNC(=O)c1ccccc1Sc1ccc2c(/C=C/c3ccccn3)n[nH]c2c1)c1cccs1 [35 (m)] | 226 ng·h/mL | 4.0 h | – | – | 10 ng·h/mL | – | Cmin (7 hr conc.) (mouse, in vivo, po, 25 mg/kg, 420 min, pH 2.3): 0 ng/mL |
| O=C(NCc1ccncc1)c1ccccc1Sc1ccc2c(/C=C/c3ccccn3)n[nH]c2c1 [35 (p)] | – | – | – | – | 1435 ng·h/mL | 1.3 h | Cmin (7 hr conc.) [7]: 5 ng/mL |
| CONC(=O)c1ccccc1Sc1ccc2c(/C=C/c3ccccn3)n[nH]c2c1 [35 (r)] | – | – | – | – | 4261 ng·h/mL | 1.3 h | – |
| CCCONC(=O)c1ccccc1Sc1ccc2c(/C=C/c3ccccn3)n[nH]c2c1 [35 (t)] | – | – | – | – | 3199 ng·h/mL | 1.1 h | – |

| SMILES | AUCleast [2] | T1/2 [2] | AUCleast [4] | T1/2 [4] | AUCleast [6] | T1/2 [6] | further results |
| --- | --- | --- | --- | --- | --- | --- | --- |
| O=C(NCC1CC1)c1ccccc1Sc1ccc2c(/C=C/c3ccccn3)n[nH]c2c1 [35 (v)] | 4865 ng·h/mL | 0.9 h | >2946 ng·h/mL | 1.0 h | – | – | – |
| CCNC(=O)c1ccccc1Sc1ccc2c(/C=C/c3ccccn3)n[nH]c2c1 [35 (x)] | 951 ng·h/mL | 3.2 h | 3516 ng·h/mL | 0.9 h | – | – | – |
| O=C(Nc1nccs1)c1ccccc1Sc1ccc2c(/C=C/c3ccccn3)n[nH]c2c1 [35 (y)] | 159 ng·h/mL | 1.2 h | 58 ng·h/mL | 1.2 h | – | – | Cmin (7 hr conc.) [5]: 2 ng/mL; Cmin (7 hr conc.) [3]: 1 ng/mL |
| CCOCCNC(=O)c1ccccc1Sc1ccc2c(/C=C/c3ccccn3)n[nH]c2c1 [35 (z)] | 837 ng·h/mL | 1.8 h | 1001 ng·h/mL | 1.6 h | – | – | – |
| Cn1ccnc1/C=N/NC(=O)c1ccccc1Sc1ccc2c(/C=C/c3ccccn3)n[nH]c2c1 [36 (a)] | – | – | – | – | 605 ng·h/mL | 1.5 h | – |
| CC(C)ONC(=O)c1cccc(F)c1Sc1ccc2c(/C=C/c3ccccn3)n[nH]c2c1 [37 (c)] | – | – | – | – | 2419 ng·h/mL | 1.2 h | Cmin (7 hr conc.) [7]: 9 ng/mL |
| CNC(=O)c1ccccc1Nc1ccc2c(/C=C/c3ccccn3)n[nH]c2c1 [39 (a)] | – | – | – | – | > 14848 ng·h/mL | 1.4 h | – |
| C#CCNC(=O)c1ccccc1Nc1ccc2c(/C=C/c3ccccn3)n[nH]c2c1 [39 (b)] | – | – | – | – | > 30972 ng·h/mL | 11.8 h | – |
| O=C(Nc1cccc(C(=O)c2ccc3c(/C=C/c4ccccn4)n[nH]c3c2)c1)c1ccncc1 [41 (b)] | > 5868 ng·h/mL | 4.7 h | 759 ng·h/mL | 1.1 h | – | – | Cmin (7 hr conc.) [3]: 6 ng/mL |
| CC(C)=CC(=O)Nc1cccc(C(=O)c2ccc3c(/C=C/c4ccccn4)n[nH]c3c2)c1 [41 (dd)] | – | – | – | – | 654 ng·h/mL | 0.8 h | Cmin (7 hr conc.) [7]: 1 ng/mL |
| C=CCn1nc(C)cc1C(=O)Nc1cc(C(=O)c2ccc3c(/C=C/c4ccccn4)n[nH]c3c2)ccc1C [41 (ff)] | – | – | – | – | 9176 ng·h/mL | 2.0 h | – |
| Cc1cc(C(=O)Nc2cccc(C(=O)c3ccc4c(/C=C/c5ccccn5)n[nH]c4c3)c2)n[nH]1 [41 (g)] | 1925 ng·h/mL | 0.3 h | 508 ng·h/mL | 0.7 h | – | – | Cmin (7 hr conc.) (mouse, in vivo, ip, 25 mg/kg, 420 min, pH 2.3): 0 ng/mL; Cmin (7 hr conc.) [3]: 1 ng/mL |
| Cc1cnccc1C(=O)Nc1cccc(C(=O)c2ccc3c(/C=C/c4ccccn4)n[nH]c3c2)c1 [41 (j)] | – | – | – | – | 1476 ng·h/mL | 1.3 h | – |
| Cc1cc(C(=O)Nc2cc(C(=O)c3ccc4c(/C=C/c5ccccn5)n[nH]c4c3)ccc2C)n(C(C)C)n1 [41 (kk)] | – | – | – | – | 11612 ng·h/mL | 2.0 h | – |
| Cc1cc(C(=O)Nc2cccc(C(=O)c3ccc4c(/C=C/c5ccccn5)n[nH]c4c3)c2)on1 [41 (m)] | 1864 ng·h/mL | 2.3 h | 9 ng·h/mL | – | – | – | – |
| CCc1cc(C(=O)Nc2cccc(C(=O)c3ccc4c(/C=C/c5ccccn5)n[nH]c4c3)c2)n(C)n1 [41 (v)] | – | – | – | – | 10949 ng·h/mL | 4.4 h | – |
| CC(C)COC(=O)Nc1cccc(C(=O)c2ccc3c(/C=C/c4ccccn4)n[nH]c3c2)c1 [41 (y)] | – | – | – | – | – | – | AUCleast [8]: Blq; Cmax [8]: Blq; Cmin (7 hr conc.) [8]: blq |
| O=C(Nc1cccc(C(=O)c2ccc3c(/C=C/c4ccccn4)n[nH]c3c2)c1)c1ccccc1 [42 (a)] | 19899 ng·h/mL | 5.0 h | 8384 ng·h/mL | 2.0 h | – | – | – |
| O=C(Nc1cccc(C(=O)c2ccc3c(-c4nc5ccccc5[nH]4)n[nH]c3c2)c1)c1ccccc1 [42 (b)] | 3207 ng·h/mL | 3.0 h | 4747 ng·h/mL | 3.0 h | – | – | – |
| O=C(Nc1cccc(C(=O)c2ccc3c(-c4nc5cccnc5[nH]4)n[nH]c3c2)c1)c1ccccc1 [42 (d)] | 1774 ng·h/mL | 1.4 h | 46 ng·h/mL | – | – | – | – |
| O=C(Nc1cccc(C(=O)c2ccc3c(/C=N/n4cccc4)n[nH]c3c2)c1)c1ccccc1 [45 (b)] | 11361 ng·h/mL | 2.0 h | 1636 ng·h/mL | 3.0 h | – | – | – |
| CCn1nc(C)cc1C(=O)Nc1cc(Nc2ccc3c(/C=C/c4ccccn4)n[nH]c3c2)c(F)cc1C [48 (a)] | 27000 ng·h/mL | – | – | – | 26636 ng·h/mL | – | – |
